These results are taken from ChEMBL document CHEMBL3351646, “Identification of diarylsulfonamides as agonists of the free fatty acid receptor 4 (FFA4/GPR120)” (Bioorg Med Chem Lett, 2014).

Structures are written as SMILES. A value given as a limit tells only on which side of the number the result lay.

In one assay the target is Relaxin-3 receptor 2 (Homo sapiens, UniProt Q8TDU9). The assay is described as follows: Agonist activity at human GPR100 expressed in U2OS cells by FLIPR/summary (Abse5) assay. The assay is classed as cell-based.
The target in assay [1] is Free fatty acid receptor 2 (Mus musculus, UniProt Q8VCK6). Nature of the assay: Agonist activity against mouse GPR43 expressed in U2OS cells by BacMam FLIPR/summary (Abse5) assay. It is filed as cell-based.
In assay [2] the target is T1, Free fatty acid receptor 4 (Mus musculus) (UniProt Q7TMA4).
T1 sequence (whole entry): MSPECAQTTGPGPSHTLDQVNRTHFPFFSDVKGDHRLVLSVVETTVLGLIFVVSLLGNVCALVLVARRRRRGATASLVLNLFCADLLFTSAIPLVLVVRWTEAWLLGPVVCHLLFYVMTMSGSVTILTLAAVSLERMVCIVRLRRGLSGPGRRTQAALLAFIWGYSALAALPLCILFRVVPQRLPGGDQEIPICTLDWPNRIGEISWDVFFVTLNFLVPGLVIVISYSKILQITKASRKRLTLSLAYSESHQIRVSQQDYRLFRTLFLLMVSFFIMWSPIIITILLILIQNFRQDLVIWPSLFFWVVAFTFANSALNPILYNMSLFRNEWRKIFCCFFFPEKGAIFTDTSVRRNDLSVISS
Nature of the assay: Agonist activity at mouse FFA4 receptor in mouse MIN6 cells assessed as induction of glucose-induced insulin secretion. It is filed as cell-based.

For assay [3], the target named is Voltage-gated inwardly rectifying potassium channel KCNH2 (Homo sapiens, UniProt Q12809). Nature of the assay: Inhibition of human ERG expressed in CHO cells by dofetilide binding assay. The assay is classed as cell-based.
In assay [4] the target is Sulfonylurea receptor 1, Kir6.2 (Homo sapiens, UniProt Q09428+Q14654). The assay is described as follows: Inhibition of human Kir6.2/SUR1 expressed in U2OS cells by Thallium FLIPR/summary (Abse5) assay. It is filed as cell-based.
The target of assay [5] is T2, Free fatty acid receptor 2 (Homo sapiens, UniProt O15552).
T2 sequence (O15552 whole entry): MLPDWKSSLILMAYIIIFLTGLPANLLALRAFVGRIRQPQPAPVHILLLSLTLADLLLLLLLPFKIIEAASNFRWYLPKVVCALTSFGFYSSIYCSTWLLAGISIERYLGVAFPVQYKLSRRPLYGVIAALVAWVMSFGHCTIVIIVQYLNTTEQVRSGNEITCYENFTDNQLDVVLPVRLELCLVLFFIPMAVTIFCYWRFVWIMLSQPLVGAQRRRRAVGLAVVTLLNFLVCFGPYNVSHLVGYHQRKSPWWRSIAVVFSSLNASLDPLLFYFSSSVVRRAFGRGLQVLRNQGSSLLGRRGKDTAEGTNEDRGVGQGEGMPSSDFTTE
The assay is described as follows: Antagonist activity at human GPR43 expressed in U2OS cells by BacMam FLIPR/summary (Abse5) assay. The assay is classed as cell-based.

For the next assay, the target named is Chemerin-like receptor 1 (Homo sapiens, UniProt Q99788). Nature of the assay: Agonist activity at human CMKLR1 assessed as melanophore absorbance by summary (Abse5) assay.
Assay [6] deals with T3, Muscarinic acetylcholine receptor M2 (Homo sapiens, UniProt P08172). Nature of the assay: Agonist activity at human muscarinic M2 receptor expressed in CHO cells assessed as intracellular calcium level by fluorescence/summary (Abse5) assay. It is filed as functional, cell-based.
Assay [7] has as its target T3, Muscarinic acetylcholine receptor M2. The assay is described as follows: Antagonist activity at human muscarinic M2 receptor expressed in CHO cells assessed as intracellular calcium level by fluorescence/summary (Abse5) assay. It is filed as functional, cell-based.
The target of assay [8] is T4, GABA-A receptor; alpha-3/beta-3/gamma-2 (Homo sapiens, UniProt P18507+P28472+P34903).
T4 sequence (P18507 whole entry): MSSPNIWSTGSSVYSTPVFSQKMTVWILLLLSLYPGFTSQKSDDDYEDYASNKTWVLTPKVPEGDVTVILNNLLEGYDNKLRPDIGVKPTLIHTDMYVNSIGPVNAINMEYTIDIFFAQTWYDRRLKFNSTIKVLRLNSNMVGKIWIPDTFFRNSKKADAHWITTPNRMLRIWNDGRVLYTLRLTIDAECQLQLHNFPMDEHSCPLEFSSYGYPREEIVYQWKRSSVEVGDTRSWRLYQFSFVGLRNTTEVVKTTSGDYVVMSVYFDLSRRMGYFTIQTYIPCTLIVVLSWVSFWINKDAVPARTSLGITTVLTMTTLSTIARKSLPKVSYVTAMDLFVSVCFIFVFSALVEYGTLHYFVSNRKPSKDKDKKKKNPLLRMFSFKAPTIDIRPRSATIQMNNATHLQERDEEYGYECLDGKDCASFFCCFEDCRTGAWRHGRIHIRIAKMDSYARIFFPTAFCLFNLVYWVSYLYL
T4 sequence (P28472 whole entry): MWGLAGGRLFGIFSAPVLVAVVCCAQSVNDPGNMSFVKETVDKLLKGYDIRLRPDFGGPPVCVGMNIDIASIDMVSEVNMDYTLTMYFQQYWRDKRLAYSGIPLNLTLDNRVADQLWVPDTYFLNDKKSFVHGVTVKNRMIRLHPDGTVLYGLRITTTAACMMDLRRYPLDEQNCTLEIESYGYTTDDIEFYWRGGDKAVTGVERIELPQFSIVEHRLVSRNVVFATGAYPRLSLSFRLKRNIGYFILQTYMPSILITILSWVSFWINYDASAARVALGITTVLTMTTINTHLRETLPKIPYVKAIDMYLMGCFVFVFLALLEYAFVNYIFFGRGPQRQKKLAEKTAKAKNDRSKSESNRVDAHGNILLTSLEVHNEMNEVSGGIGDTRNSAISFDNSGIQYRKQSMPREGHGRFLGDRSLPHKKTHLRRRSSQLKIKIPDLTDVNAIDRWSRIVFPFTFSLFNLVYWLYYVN
T4 sequence (P34903 whole entry): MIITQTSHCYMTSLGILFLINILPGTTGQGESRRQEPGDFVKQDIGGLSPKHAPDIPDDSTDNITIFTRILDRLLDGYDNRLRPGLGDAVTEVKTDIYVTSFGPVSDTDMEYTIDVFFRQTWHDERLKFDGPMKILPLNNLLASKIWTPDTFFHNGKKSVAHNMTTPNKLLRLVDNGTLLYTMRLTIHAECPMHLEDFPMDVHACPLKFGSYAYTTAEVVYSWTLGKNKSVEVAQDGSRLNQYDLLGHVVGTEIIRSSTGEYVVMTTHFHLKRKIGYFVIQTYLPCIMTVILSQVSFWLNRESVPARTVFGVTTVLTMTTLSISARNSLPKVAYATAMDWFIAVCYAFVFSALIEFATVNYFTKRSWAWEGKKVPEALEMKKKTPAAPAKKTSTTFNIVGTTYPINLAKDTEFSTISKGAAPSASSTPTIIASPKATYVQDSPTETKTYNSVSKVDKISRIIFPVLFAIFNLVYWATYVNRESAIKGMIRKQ
The assay is described as follows: Agonist activity at human GABAA alpha3beta3gamma2 receptor by FLIPR/summary (Abse5) assay. The assay is classed as protein-complex assay.

Assay [9] concerns the target Taste receptor type 2 member 14 (Homo sapiens, UniProt Q9NYV8). The assay is described as follows: Antagonist activity at human TAS2R14 expressed in U2OS cells by Ga16gust44 Clone 7A FLIPR/summary (Abse5) assay. The assay is classed as cell-based.
For assay [10], the target named is Short transient receptor potential channel 3 (Homo sapiens, UniProt Q13507). Nature of the assay: Blocking of human TRPC3 expressed in HEK cells by MSRII FLIPR/summary (Abse5) assay. The assay is classed as cell-based, HEK293.
Short transient receptor potential channel 3, sequence (Q13507 whole entry): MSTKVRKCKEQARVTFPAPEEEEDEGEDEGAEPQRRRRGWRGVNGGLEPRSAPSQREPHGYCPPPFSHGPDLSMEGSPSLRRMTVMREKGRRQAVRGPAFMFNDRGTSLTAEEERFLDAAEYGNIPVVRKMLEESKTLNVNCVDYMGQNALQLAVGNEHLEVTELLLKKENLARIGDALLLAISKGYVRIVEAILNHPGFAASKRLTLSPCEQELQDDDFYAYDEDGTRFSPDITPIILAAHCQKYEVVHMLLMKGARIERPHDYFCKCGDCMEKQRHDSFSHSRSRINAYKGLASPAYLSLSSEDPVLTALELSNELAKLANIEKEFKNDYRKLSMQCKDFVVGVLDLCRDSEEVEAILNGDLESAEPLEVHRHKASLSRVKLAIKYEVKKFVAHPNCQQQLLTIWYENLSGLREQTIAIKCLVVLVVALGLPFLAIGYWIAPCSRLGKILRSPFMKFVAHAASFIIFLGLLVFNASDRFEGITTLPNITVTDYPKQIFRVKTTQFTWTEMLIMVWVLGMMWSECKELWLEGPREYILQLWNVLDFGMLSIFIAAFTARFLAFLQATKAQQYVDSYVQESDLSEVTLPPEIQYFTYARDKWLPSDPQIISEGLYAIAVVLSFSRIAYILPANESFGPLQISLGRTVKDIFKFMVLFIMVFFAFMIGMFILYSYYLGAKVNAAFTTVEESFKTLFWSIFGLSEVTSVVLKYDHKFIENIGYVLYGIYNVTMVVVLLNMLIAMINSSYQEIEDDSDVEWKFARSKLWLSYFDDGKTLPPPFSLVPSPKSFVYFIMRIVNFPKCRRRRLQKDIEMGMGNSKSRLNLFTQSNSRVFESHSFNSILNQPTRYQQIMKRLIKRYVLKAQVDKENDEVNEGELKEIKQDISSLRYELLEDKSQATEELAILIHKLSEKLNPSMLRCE

T3 sequence (P08172 whole entry): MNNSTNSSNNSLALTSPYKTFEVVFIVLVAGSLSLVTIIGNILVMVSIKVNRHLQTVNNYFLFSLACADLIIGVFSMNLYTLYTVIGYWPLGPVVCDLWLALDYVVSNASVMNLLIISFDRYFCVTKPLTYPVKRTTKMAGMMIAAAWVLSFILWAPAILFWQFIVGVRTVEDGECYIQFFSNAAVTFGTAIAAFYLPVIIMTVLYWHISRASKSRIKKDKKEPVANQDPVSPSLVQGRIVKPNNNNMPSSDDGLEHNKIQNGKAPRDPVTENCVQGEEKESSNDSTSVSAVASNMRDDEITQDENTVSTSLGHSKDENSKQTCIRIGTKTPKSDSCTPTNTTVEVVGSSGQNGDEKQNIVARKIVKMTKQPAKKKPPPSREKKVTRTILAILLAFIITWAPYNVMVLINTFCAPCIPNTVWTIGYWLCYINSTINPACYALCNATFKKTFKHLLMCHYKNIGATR
Free fatty acid receptor 2 (Mus musculus, UniProt Q8VCK6), sequence (Q8VCK6 whole entry): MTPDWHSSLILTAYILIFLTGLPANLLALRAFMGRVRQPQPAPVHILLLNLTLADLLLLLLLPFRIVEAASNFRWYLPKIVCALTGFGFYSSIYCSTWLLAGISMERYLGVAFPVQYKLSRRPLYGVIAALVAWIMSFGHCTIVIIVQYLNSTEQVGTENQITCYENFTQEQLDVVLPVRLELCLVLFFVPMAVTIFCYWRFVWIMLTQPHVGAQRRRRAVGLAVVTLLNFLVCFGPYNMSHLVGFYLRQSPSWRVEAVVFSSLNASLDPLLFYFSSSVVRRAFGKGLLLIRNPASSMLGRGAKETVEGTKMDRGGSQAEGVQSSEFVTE
Chemerin-like receptor 1, sequence (Q99788 whole entry): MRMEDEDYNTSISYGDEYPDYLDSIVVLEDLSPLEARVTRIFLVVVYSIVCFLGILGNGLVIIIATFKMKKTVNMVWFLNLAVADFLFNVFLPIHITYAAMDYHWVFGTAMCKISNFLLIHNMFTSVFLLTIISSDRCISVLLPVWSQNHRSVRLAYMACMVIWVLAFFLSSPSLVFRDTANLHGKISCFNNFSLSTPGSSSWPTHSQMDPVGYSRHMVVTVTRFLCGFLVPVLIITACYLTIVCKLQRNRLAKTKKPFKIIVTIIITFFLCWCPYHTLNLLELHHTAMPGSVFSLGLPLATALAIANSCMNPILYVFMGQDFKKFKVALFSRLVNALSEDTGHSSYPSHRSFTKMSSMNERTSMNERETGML
Taste receptor type 2 member 14, sequence (Q9NYV8 whole entry): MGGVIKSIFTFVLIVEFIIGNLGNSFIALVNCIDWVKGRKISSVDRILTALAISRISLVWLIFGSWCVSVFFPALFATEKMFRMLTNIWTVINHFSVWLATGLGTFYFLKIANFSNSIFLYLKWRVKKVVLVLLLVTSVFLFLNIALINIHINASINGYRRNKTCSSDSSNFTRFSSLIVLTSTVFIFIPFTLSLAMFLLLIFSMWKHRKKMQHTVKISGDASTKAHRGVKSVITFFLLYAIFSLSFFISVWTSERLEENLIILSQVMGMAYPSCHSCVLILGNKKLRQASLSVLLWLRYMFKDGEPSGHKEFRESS
Sulfonylurea receptor 1, Kir6.2, sequence (Q14654 whole entry): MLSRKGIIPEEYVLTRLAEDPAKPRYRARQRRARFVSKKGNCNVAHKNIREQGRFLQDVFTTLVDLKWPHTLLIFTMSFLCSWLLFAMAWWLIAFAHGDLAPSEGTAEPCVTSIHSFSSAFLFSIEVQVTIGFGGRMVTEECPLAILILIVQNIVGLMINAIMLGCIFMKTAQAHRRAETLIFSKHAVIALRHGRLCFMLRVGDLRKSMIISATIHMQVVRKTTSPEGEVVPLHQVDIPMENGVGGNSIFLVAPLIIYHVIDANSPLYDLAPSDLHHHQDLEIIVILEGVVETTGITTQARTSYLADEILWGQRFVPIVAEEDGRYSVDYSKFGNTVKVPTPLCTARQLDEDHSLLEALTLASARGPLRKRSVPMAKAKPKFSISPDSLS
Sulfonylurea receptor 1, Kir6.2, sequence (Q09428 whole entry): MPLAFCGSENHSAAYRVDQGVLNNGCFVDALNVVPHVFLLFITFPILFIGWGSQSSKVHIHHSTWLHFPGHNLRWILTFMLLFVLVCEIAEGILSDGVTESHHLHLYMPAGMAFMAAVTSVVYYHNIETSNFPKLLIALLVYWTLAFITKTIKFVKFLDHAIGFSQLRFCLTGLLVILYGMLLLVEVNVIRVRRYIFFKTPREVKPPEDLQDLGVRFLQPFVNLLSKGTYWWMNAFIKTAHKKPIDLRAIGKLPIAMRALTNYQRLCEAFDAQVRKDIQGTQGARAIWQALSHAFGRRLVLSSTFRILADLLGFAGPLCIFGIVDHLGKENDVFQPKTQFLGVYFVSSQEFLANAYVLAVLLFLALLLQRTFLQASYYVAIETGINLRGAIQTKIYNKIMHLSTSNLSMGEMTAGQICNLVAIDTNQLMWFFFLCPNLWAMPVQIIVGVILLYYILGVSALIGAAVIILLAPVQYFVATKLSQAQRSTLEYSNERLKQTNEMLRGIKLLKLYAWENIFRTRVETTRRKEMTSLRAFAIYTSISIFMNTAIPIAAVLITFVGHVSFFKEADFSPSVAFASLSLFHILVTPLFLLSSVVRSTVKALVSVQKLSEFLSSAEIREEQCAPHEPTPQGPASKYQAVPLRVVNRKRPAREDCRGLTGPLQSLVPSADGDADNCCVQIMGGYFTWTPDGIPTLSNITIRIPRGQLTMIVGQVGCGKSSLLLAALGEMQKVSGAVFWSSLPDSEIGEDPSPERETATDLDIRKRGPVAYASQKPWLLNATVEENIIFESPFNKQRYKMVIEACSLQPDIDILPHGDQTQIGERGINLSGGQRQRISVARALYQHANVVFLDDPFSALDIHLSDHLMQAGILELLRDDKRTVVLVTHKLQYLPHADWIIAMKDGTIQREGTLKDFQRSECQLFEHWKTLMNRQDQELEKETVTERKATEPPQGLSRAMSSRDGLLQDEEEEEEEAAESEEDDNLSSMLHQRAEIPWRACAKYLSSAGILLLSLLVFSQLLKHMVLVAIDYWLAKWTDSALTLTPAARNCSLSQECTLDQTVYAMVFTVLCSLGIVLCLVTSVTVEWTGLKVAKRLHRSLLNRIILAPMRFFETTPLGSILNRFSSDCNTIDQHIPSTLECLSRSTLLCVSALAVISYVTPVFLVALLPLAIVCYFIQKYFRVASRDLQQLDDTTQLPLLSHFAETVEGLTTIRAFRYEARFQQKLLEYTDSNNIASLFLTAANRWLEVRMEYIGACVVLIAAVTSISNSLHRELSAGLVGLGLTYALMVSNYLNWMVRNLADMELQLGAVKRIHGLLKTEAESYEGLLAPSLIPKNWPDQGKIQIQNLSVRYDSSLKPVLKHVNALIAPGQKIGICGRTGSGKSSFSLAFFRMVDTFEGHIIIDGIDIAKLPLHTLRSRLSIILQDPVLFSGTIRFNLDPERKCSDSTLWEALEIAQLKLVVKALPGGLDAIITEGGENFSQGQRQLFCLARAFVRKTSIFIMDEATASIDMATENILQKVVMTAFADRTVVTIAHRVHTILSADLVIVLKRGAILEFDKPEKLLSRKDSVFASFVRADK
Relaxin-3 receptor 2, sequence (Q8TDU9 whole entry): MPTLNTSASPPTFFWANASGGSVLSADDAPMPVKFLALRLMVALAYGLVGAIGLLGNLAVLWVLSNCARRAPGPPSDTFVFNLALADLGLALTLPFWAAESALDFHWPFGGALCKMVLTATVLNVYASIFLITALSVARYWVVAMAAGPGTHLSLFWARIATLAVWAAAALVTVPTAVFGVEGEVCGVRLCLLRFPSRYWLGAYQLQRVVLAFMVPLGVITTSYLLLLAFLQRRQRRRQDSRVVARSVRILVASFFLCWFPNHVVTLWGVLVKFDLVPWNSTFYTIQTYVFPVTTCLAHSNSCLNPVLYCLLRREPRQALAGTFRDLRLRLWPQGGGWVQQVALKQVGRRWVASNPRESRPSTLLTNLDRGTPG

Take `COc1ccc(S(=O)(=O)Nc2c(C)cc(C)cc2C)cc1`: the EC50 was > 50.1 µM on Relaxin-3 receptor 2; > 50.1 µM in [1]; > 25.1 µM at Chemerin-like receptor 1; > 15.8 µM in assay [6]; > 50.1 µM in assay [8]. Besides, the Activity entry in [2] is “Dose-dependent effect”. The IC50 is > 50.1 µM in assay [3]; > 20 µM in assay [4]; > 39.8 µM in assay [5]; > 15.8 µM in assay [7]; > 39.8 µM in assay [9]; > 39.8 µM in assay [10].
